The values below are quoted from earlier work in patent US20080038350A1, “LOW-DOSAGE PERORAL MEDICATION FOR CONTRACEPTION CONTAINING CRYSTALLINE DIENOGEST AND ETHINYL ESTRADIOL” (priority 2006, published 2008).

For one data set, the system named is ovulation inhibition. The conditions noted are these: micronized, average particle size of about 3 μm.
The conditions of data set [1]: single dosage.

Consider `C[C@]12CCC3=C4CCC(=O)C=C4CC[C@H]3[C@@H]1CC[C@@]2(O)CC#N` [dienogest, 17α-cyanomethyl-17β-hydroxyestra-4,9-dien-3-one], for which the “optimum dosage for reliable ovulation inhibition” value in the data set on ovulation inhibition is on record as 2 mg.

As for `C[C@H]1O[C@@H](O[C@H]2[C@@H](O)C[C@H](O[C@H]3[C@@H](O)C[C@H](O[C@H]4CC[C@@]5(C)[C@H](CC[C@@H]6[C@@H]5C[C@@H](O)[C@]5(C)[C@@H](C7=CC(=O)OC7)CC[C@]65O)C4)O[C@@H]3C)O[C@@H]2C)C[C@H](O)[C@@H]1O` [digoxin], the “plasma level, average particle size 3.7 μm versus powder of 22 μm” value in data set [1] is “nearly twice as high”.
